{"source": "patent US7250396B2", "about": "“Juvenile hormone compositions and methods for making same” (priority 2003, dated 2007)", "key": {"[1]": {"test_system": "16 day Indian Meal Moth larvae", "experiment": "Exposure of 16 day larvae to methoprene for varying periods of time", "format": "in vivo, Plodia Interpunctella", "conditions": "1000 wppm MP", "description": "An experiment was set up to determine the effect of exposing 16 day Indian Meal Moth larvae to methoprene for varying periods of time. The treatment levels tested were control at 0 wppm methoprene and 1000 wppm methoprene. Five larvae (3 females, 2 males) per sample were added to paper treated with the coating composition described in Example 1. The larvae were exposed to the samples for different amount of time. The times of exposure were 0 hrs., 20 min., 1 hr., 2 hrs., 4 hrs., 8 hrs., and 24 hrs. After larvae were exposed for the set amount of time, they were placed in an incubator (Precision Model No. 815) at 80° F. (27° C.) and at a relative humidity of 60 percent, where they were allowed to pupate, become adults, and reproduce. Observations were obtained throughout a 16 day period. From when adults hatched, the number of adults were counted and averaged over the remainder of the experiment. The number of new eggs were also counted and the average number of eggs per adult was calculated. Generally, egg production decreased as treatment levels increased."}, "[2]": {"test_system": "day 16 larvae of the Indian Meal Moth, Plodia Interpunctella", "experiment": "Effect of methoprene at low concentrations: day 16 larvae on treated paper (behavior, webbing, survival over 19 days)", "format": "in vivo", "description": "An experiment was set up to determine the effectiveness of methoprene at very low concentrations on day 16 larvae of the Indian Meal Moth, Plodia Interpunctella. The concentrations tested ranged from the control at 0 wppm to 1000 wppm increasing by increments of 10×. Ten larvae per sample were added to the treated paper and exposed throughout the experiment in an incubator (Precision Model No. 815) at 80° F. (27° C.) and at a relative humidity of 60 percent. Behavior, webbing characteristics and survival rates were observed over 19 days.\nThe coating formulation components (excluding methoprene) and preparation procedure are described in Table 1, below.\nAs the Benzophenone was added to the mixture in step 7, above, the mixture was stirred in a mixer at 1500 rpm and at a temperature of 70° F. (21° C.) until the benzophenone was dissolved. As the methoprene was added to the mixture in step 8, above, the mixture was stirred in a mixer at 1500 rpm and at a temperature of 89° F. (32° C.)."}, "[3]": {"test_system": "Indian Meal Moth adults", "experiment": "Adult exposure to liquid methoprene in a UV coating: egg production and viability", "format": "in vivo, Plodia Interpunctella", "conditions": "for Total Percent Reduction: compared to the control; for Total No. of Eggs: eggs collected over 8 days; for Total No. of Viable Eggs: eggs that hatched", "description": "An experiment was set up to determine how egg production would be affected when Indian Meal Moth adults were exposed to liquid methoprene in a UV coating. Adults were allowed to emerge into jars lined with treated paper. The treatment levels tested were a control at 0 wppm to 1000 wppm increasing by increments of 10×. A combination treatment of liquid methoprene at 1000 wppm and 1 weight percent diatomaceous earth was also tested. The eggs produced fell to a treated surface before being collected and placed into rearing food. Observations and egg collections were taken over a […] period.\nThe adults came from stock insects and the number exposed per treatment was not predetermined. The total number of eggs represents all eggs per treatment collected over 8 days. The total number of viable eggs represents the number of eggs that hatched. These larvae were allowed to feed for 14 days before counting."}}, "data": [{"smiles": "COC(C)(C)CCCC(C)C/C=C/C(C)=C/C(=O)OC(C)C", "note": "(centres unmarked) [methoprene, isopropyl-(2E, 4E)-11-methoxy-3,7,11-trimethyl-2,4-dodecadienoate]", "values": [{"measurement": "Average No. of Adults/Day", "setting": "[1]; time exposed 20 min.", "value": 10}, {"measurement": "Average No. of Eggs/Adult", "setting": "[1]; time exposed 20 min.", "value": 34}, {"measurement": "Average No. of Adults/Day", "setting": "[1]; time exposed 1 hr.", "value": 12}, {"measurement": "Average No. of Eggs/Adult", "setting": "[1]; time exposed 1 hr.", "value": 30}, {"measurement": "Average No. of Adults/Day", "setting": "[1]; time exposed 2 hrs.", "value": 12}, {"measurement": "Average No. of Eggs/Adult", "setting": "[1]; time exposed 2 hrs.", "value": 19}, {"measurement": "Average No. of Adults/Day", "setting": "[1]; time exposed 4 hrs.", "value": 10}, {"measurement": "Average No. of Eggs/Adult", "setting": "[1]; time exposed 4 hrs.", "value": 25}, {"measurement": "Average No. of Adults/Day", "setting": "[1]; time exposed 8 hrs.", "value": 9}, {"measurement": "Average No. of Eggs/Adult", "setting": "[1]; time exposed 8 hrs.", "value": 17}, {"measurement": "Average No. of Adults/Day", "setting": "[1]; time exposed 24 hrs.", "value": 7}, {"measurement": "Average No. of Eggs/Adult", "setting": "[1]; time exposed 24 hrs.", "value": 9}, {"measurement": "SURVIVAL RATE", "setting": "[2]; 1 wppm methoprene in coating, day 4", "value": "8 number of larvae surviving out of 10 larvae"}, {"measurement": "SURVIVAL RATE", "setting": "[2]; 1 wppm methoprene in coating, day 7", "value": "7 number of larvae surviving out of 10 larvae"}, {"measurement": "SURVIVAL RATE", "setting": "[2]; 1 wppm methoprene in coating, day 11", "value": "6 number of larvae surviving out of 10 larvae"}, {"measurement": "SURVIVAL RATE", "setting": "[2]; 1 wppm methoprene in coating, day 13", "value": "5 number of larvae surviving out of 10 larvae"}, {"measurement": "SURVIVAL RATE", "setting": "[2]; 1 wppm methoprene in coating, day 19", "value": "1 number of larvae surviving out of 10 larvae"}, {"measurement": "SURVIVAL RATE", "setting": "[2]; 10 wppm methoprene in coating, day 4", "value": "8 number of larvae surviving out of 10 larvae"}, {"measurement": "SURVIVAL RATE", "setting": "[2]; 10 wppm methoprene in coating, day 7", "value": "8 number of larvae surviving out of 10 larvae"}, {"measurement": "SURVIVAL RATE", "setting": "[2]; 10 wppm methoprene in coating, day 11", "value": "7 number of larvae surviving out of 10 larvae"}, {"measurement": "SURVIVAL RATE", "setting": "[2]; 10 wppm methoprene in coating, day 13", "value": "7 number of larvae surviving out of 10 larvae"}, {"measurement": "SURVIVAL RATE", "setting": "[2]; 10 wppm methoprene in coating, day 19", "value": "2 number of larvae surviving out of 10 larvae"}, {"measurement": "SURVIVAL RATE", "setting": "[2]; 100 wppm methoprene in coating, day 4", "value": "6 number of larvae surviving out of 10 larvae"}, {"measurement": "SURVIVAL RATE", "setting": "[2]; 100 wppm methoprene in coating, day 7", "value": "4 number of larvae surviving out of 10 larvae"}, {"measurement": "SURVIVAL RATE", "setting": "[2]; 100 wppm methoprene in coating, day 11", "value": "1 number of larvae surviving out of 10 larvae"}, {"measurement": "SURVIVAL RATE", "setting": "[2]; 100 wppm methoprene in coating, day 13", "value": "1 number of larvae surviving out of 10 larvae"}, {"measurement": "SURVIVAL RATE", "setting": "[2]; 100 wppm methoprene in coating, day 19", "value": "1 number of larvae surviving out of 10 larvae"}, {"measurement": "SURVIVAL RATE", "setting": "[2]; 1000 wppm methoprene in coating, day 4", "value": "7 number of larvae surviving out of 10 larvae"}, {"measurement": "SURVIVAL RATE", "setting": "[2]; 1000 wppm methoprene in coating, day 7", "value": "5 number of larvae surviving out of 10 larvae"}, {"measurement": "SURVIVAL RATE", "setting": "[2]; 1000 wppm methoprene in coating, day 11", "value": "3 number of larvae surviving out of 10 larvae"}, {"measurement": "SURVIVAL RATE", "setting": "[2]; 1000 wppm methoprene in coating, day 13", "value": "3 number of larvae surviving out of 10 larvae"}, {"measurement": "SURVIVAL RATE", "setting": "[2]; 1000 wppm methoprene in coating, day 19", "value": "0 number of larvae surviving out of 10 larvae"}, {"measurement": "Behavior", "setting": "[2]; exposed larvae, as early as day 4 of the testing period, increased nipping and cannibalism", "value": "showed signs of aggression"}, {"measurement": "Webbing characteristics", "setting": "[2]; larvae exposed to 1 wppm methoprene", "value": "slightly thicker throughout the dish than the control"}, {"measurement": "Webbing characteristics", "setting": "[2]; larvae exposed to 10 wppm methoprene", "value": "thicker, more centralized webbing"}, {"measurement": "Webbing characteristics", "setting": "[2]; larvae exposed to 10 wppm methoprene (second mention, compared with the 10 wppm sample)", "value": "dense and more centralized than the 10 wppm methoprene sample"}, {"measurement": "Webbing characteristics", "setting": "[2]; larvae exposed to 1000 wppm methoprene", "value": "completely centralized mound of webbing"}, {"measurement": "survival rate compared to the control sample", "setting": "[2]; treatment levels as low as 1 wppm", "value": "significant decrease in survival rate"}, {"measurement": "Percent Viable Eggs", "setting": "[3]; 10 wppm MP", "value": 7.5, "unit": "%"}, {"measurement": "Total Percent Reduction", "setting": "[3]; 10 wppm MP", "value": 85.6, "unit": "%"}, {"measurement": "Total No. of Eggs", "setting": "[3]; 10 wppm MP", "value": 1430}, {"measurement": "Total No. of Viable Eggs", "setting": "[3]; 10 wppm MP", "value": 108}, {"measurement": "Percent Viable Eggs", "setting": "[3]; 100 wppm MP", "value": 18, "unit": "%"}, {"measurement": "Total Percent Reduction", "setting": "[3]; 100 wppm MP", "value": 65.4, "unit": "%"}, {"measurement": "Total No. of Eggs", "setting": "[3]; 100 wppm MP", "value": 1285}, {"measurement": "Total No. of Viable Eggs", "setting": "[3]; 100 wppm MP", "value": 234}, {"measurement": "Percent Viable Eggs", "setting": "[3]; 1000 wppm MP", "value": 36, "unit": "%"}, {"measurement": "Total Percent Reduction", "setting": "[3]; 1000 wppm MP", "value": 30.8, "unit": "%"}, {"measurement": "Total No. of Eggs", "setting": "[3]; 1000 wppm MP", "value": 1190}, {"measurement": "Total No. of Viable Eggs", "setting": "[3]; 1000 wppm MP", "value": 432}]}]}
